Source: paper PMC2721771 (Purinergic Signalling, 2008)
Read-outs that look alike come from different tables or passages of the source.

Columns and labels:
[1] = Storage stability of the trimethylstannyl precursor; assay type: physicochemical; details: −8 °C for several months
[2] = molecular target: T1, rat A3 adenosine receptor (Rattus norvegicus, UniProt P28647); assay type: binding; details: vs [125I]MRS1898 0.1 nM, rA3AR in CHO membranes, mean ± SEM
T1 sequence (P28647 1-320): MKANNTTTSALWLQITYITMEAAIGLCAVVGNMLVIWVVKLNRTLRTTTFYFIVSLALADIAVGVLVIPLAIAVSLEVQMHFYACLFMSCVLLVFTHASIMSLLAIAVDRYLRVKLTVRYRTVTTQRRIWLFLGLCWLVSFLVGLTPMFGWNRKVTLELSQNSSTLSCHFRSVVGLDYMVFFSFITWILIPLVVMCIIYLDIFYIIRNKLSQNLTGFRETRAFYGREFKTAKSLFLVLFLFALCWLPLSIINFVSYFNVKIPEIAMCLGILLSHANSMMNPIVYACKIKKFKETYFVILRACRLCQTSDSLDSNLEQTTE

hA3AR = details: cited from earlier work
rA3AR = details: cited from earlier work
mouse A3AR = details: cited from earlier work
rA1AR = details: cited from earlier work

CNC(=O)[C@]12C[C@@H]1[C@@H](n1cnc3c(NCc4cccc([125I])c4)nc(Cl)nc31)[C@H](O)[C@@H]2O [Compound 10]
stability upon storage [1]: stable

CCCOC(=O)c1c(-c2ccccc2)nc(CC)c(C(=O)SCC)c1CCC [MRS1523, 5-propyl-2-ethyl-4-propyl-3-(ethylsulfanylcarbonyl)-6-phenylpyridine-5-carboxylate]
Ki [2]: 518 ± 236 nM

CNc1ncnc2c1ncn2[C@@H]1O[C@H](CO)[C@@H](O)[C@H]1O [N^6-methyladenosine]
Ki (hA3AR): 9.3 nM | Ki (rA3AR; rA3AR): 6390 nM

CCCCC#Cc1nc(NC)c2ncn([C@@H]3O[C@H](CO)[C@@H](O)[C@H]3O)c2n1 [[^3H]HEMADO, 2-hexyn-1-yl-N^6-methyladenosine]
Kd (hA3AR): 1.1 nM | effect on the rA3AR (rA3AR; rA3AR): no effect

CCCn1cc2c(nc(NC(=O)Nc3ccc(OC)cc3)n3nc(-c4ccco4)nc23)n1 [[^3H]MRE 3008F20, 5-[[(4-methoxyphenyl)amino]carbonyl]amino-8-propyl-2-(2-furyl)-pyrazolo[4,3-e]1,2,4-triazolo[1,5-c]pyrimidine]
binding to the mouse A3AR (mouse A3AR): do not bind effectively | binding to the rA3AR (rA3AR; rA3AR): do not bind effectively

CCNC(=O)[C@H]1O[C@@H](n2cnc3c(N)ncnc32)[C@H](O)[C@@H]1O [[^3H]NECA, 5′-N-ethylcarboxamidoadenosine]
binding affinity at the rA3AR (rA3AR; rA3AR): weak

CC[C@@H]1CN2C(=O)N(C)c3nc(-c4ccccc4)[nH]c3C2=N1 [[^3H]PSB-11, (R)-4-methyl-8-ethyl-2-phenyl-imidazo[2,1-i]purin-5-one]
binding to the mouse A3AR (mouse A3AR): do not bind effectively | binding to the rA3AR (rA3AR; rA3AR): do not bind effectively

CNC(=O)[C@H]1O[C@@H](n2cnc3c(NCc4ccc(N)c(I)c4)ncnc32)[C@H](O)[C@@H]1O [[^125I]I-AB-MECA, N^6-(4-amino-3-iodobenzyl)-5′-N-methylcarboxamidoadenosine]
Kd (rA1AR; read-out: affinity for rA1AR, radioligand affinity, A1): 3.42 nM | Kd (rA3AR; rat A3AR): ~1 nM | Kd (rA3AR; read-out: affinity for rA3AR, radioligand affinity, A3): 1.48 nM

Nc1ccc(CCNc2ncnc3c2ncn3[C@@H]2O[C@H](CO)[C@@H](O)[C@H]2O)cc1I [[^125I]I-APNEA, N^6-(4-amino-3-iodophenylethyl)-adenosine]
Kd (rA1AR; rA1AR): 1.32 nM | Kd (rA3AR; rA3AR): 15 nM
